Assay results published in PMC10495264 (Nature Cell Biology, 2023).
“Also recorded” adds a separate entry of the source.

Assays:
mTORC1 [1] = molecular target: T1, mTORC1 (Homo sapiens, UniProt P42345); test: mTORC1 complex stability/composition, mTOR co-immunoprecipitation of Raptor and mLST8; details: 1 mM Mal-CoA added to cell lysates before immunoprecipitation
T1 construct: endogenous mTORC1 complexes were purified from HEK293FT cells; endogenous in cells; host or cells: HEK293FT (immunoprecipitation of endogenous mTOR); the 4E-BP1 substrate was made in E. coli BL21 RP
Protocol: For the mammalian endogenous protein co-immunoprecipitation experiments, cells of a near-confluent 10-cm dish were lysed in CHAPS IP buffer (50 mM Tris pH 7.5, 0.3% CHAPS detergent, 150 mM NaCl, 50 mM NaF, 2 mM Na-vanadate and 0.011 g ml^−1 β-glycerophosphate) supplemented with 1×PhosSTOP phosphatase inhibitors and 1×EDTA-free cOmplete protease inhibitors (11873580001, Roche) for 10 min on ice. The samples were clarified by centrifugation (20,000g, 15 min, 4 °C) and the supernatants were subjected to immunoprecipitation by the addition of 3 μl of each antibody, incubation at 4 °C with rotation for 3 h, followed by incubation (4 °C with rotation) with 30 μl of a pre-washed Protein A agarose bead slurry (cat. no. 11134515001, Roche) for an additional hour. The beads were then washed four times with CHAPS IP wash buffer (50 mM Tris pH 7.5, 0.3% CHAPS detergent, 150 mM NaCl and 50 mM NaF) and boiled in 1×SDS loading buffer. A portion of the samples was kept aside as the input before the addition of antibodies. The samples were analysed by SDS–PAGE and the presence of co-immunoprecipitated proteins was detected by immunoblotting with the appropriate specific antibodies.
To test whether Mal-CoA influences mTORC1 complex stability/composition, 1 mM Mal-CoA lithium salt solution was added to the lysates before the immunoprecipitation of mTOR, as described earlier. […]

mTORC1 [2] = test: mTORC1 activity in HEK293FT cells (WT and knockout lines), phosphorylation of S6K, 4E-BP1, Grb10, TFEB by immunoblot; assay type: cell-based, human
Protocol: Data represent the median fluorescence intensity of OPP Alexa Fluor 488; n = 6 biological replicates from two independent experiments. b,c,e,g,i,k,l, Data are the mean ± s.e.m. *P < 0.05, **P < 0.005, ***P < 0.0005. […] Source numerical data and unprocessed blots are provided. Source data
Amino-acid-starvation experiments were carried out as described before[42],[43]. […] For the lipid depletion experiments, cells were cultured in medium containing 10% charcoal-stripped FBS (A3382101, Thermo Fisher Scientific), instead of full FBS, for 24 h before treatments with FASN inhibitors were performed. For FA supplementation, each FA was first conjugated to 10% FA-free BSA (fraction V; cat. no. 10735086001, Roche) for 1 h at 50 °C in a 50:50 volumetric ratio. The BSA-conjugated C16:0, C16:1, C18:1 and C18:2 FAs (100 μM) were then added to the media both 16 h previous to and at the start of the treatment with FASN inhibitors.
For standard SDS–PAGE and immunoblotting experiments, cells from a well of a 12-well plate were lysed in 250 μl of ice-cold Triton lysis buffer (50 mM Tris pH 7.5, 1% Triton X-100, 150 mM NaCl, 50 mM NaF, 2 mM Na-vanadate and 0.011 g ml^−1 β-glycerophosphate) supplemented with 1×PhosSTOP phosphatase inhibitors (cat. no. 4906837001, Roche) and 1×cOmplete protease inhibitors (cat. no. 11836153001, Roche) for 10 min on ice. The samples were clarified by centrifugation (20,000g, 15 min, 4 °C) and the supernatants were boiled in 1×SDS sample buffer (5×SDS sample buffer: 350 mM Tris–HCl pH 6.8, 30% glycerol, 600 mM DTT, 12.8% SDS and 0.12% bromophenol blue). The band intensities were quantified using the ImageJ software.

CC(C)(COP(=O)(O)OP(=O)(O)OCC1OC(n2cnc3c(N)ncnc32)C(O)C1OP(=O)(O)O)C(O)C(=O)NCCC(=O)NCCSC(=O)CC(=O)O (stereo not drawn) [Mal-CoA, malonyl-CoA]
mTORC1 stability (interaction of mTOR with Raptor and mLST8) (mTORC1 [1]): did not influence | p-S6K(T389)/S6K, Mean (mTORC1 [2]; ED Fig. 4n, relative to DMSO): 0.5757 | mTORC1 activity after exogenous addition of Mal-CoA (mTORC1 [2]; HEK293FT, 250 μM Mal-CoA in medium, 30 min): significant drop; also recorded: capable of downregulating
